Laboratory results from patent publication US20050143296A1, “Extraction and utilization of cell growth-promoting peptides from silk protein” (priority 2003, published 2005).
Entries after “also recorded” stand apart in the source; their conditions may differ. Where a SMILES comes first, the peptide text is derived from it. Where no end group is shown, it is not given here.

Tests used:
human skin fibroblasts [1] = assay: Growth of human skin fibroblasts in dishes coated with silk fractions or peptides (low serum medium with LSGS, Alamer Blue viable cell number); format: cell-based; conditions: for cell growth promotion (in words): human skin fibroblasts in coated dishes, compared to control without peptide; for Growth rate (%): control = 100
Experimental: Only 1 ml of 70% ethanol was added to dishes for control.
The cells used were human skin fibroblasts (originating from adult normal skin) purchased (frozen) from Sanko Junyaku Co., Ltd.
The medium was added at 2 ml per dish, and 80,000 cells were inoculated and cultured for 3 days.
The medium at 2 ml per dish and Alamer Blue (Iwaki Glass Co.) at 0.1 ml per dish were added and cultured for 2 hours at 37 degrees C., and then the reduced amount of Alamer Blue dye calculated from the absorbances at 570 nm and 600 nm was correlated with viable cell number.
Control dishes contained only 70% ethanol at 1 ml, followed by air-drying.
About 1 mg each of the synthetic peptides was dissolved in 200 μl of PBS.
The cells used were human skin fibroblasts (originating from adult normal skin) purchased (frozen) from Sanko Junyaku Co. Ltd.
The culture medium used was the low serum culture medium for human skin fibroblast growth purchased from Kurabo Industries Ltd.
The medium was added at 2 ml per dish, and ca. 80,000 cells were inoculated and cultured for 3 days.
Then, 0.1 ml of Alamer Blue (Iwaki Glass Co.) was added and cultured for 2 hours at 37 degrees C., and the reduced amount of Alamer Blue calculated from the absorbances at 570 nm and 600 nm was correlated with viable cell number.

[2] = Dissolution of synthetic peptides in PBS for coating; format: physicochemical; conditions: about 1 mg peptide in 200 μl of PBS
Experimental: About 1 mg each of the synthetic peptides was dissolved in 200 μl of PBS. The dissolved peptide solutions were diluted with 70% ethanol to adjust to 0.025% and 0.0025% concentrations, and 1 ml each of these solutions were put in dishes and dried.
70% ethanol, put in a dish and dried.

human skin fibroblasts [3] = assay: Growth of human skin fibroblasts in dishes coated with silk fractions or peptides (low serum medium with LSGS, Alamer Blue viable cell number); format: cell-based; conditions: for Growth rate (%): Table 3, gel filtration peaks of A-6, cultured for 2 days, control = 100; for growth rate relative to the growth of the control: after 2-day culture (Table 3)
human skin fibroblasts [4] = assay: Adhesion of human skin fibroblasts after 5 hours in peptide-coated dishes (Medium 106S without LSGS); format: cell-based; conditions: Table 8; 5 hour-culture; peptide 0.025 μg/cm^2; no LSGS; no peptide = 100
Experimental: (§1) This method partly differs from the method in (3) Cell culture of Example 1.
(§2) In the present cell culture, the cells used were human skin fibroblasts (originating from adult normal skin) purchased (frozen) from Sanko Junyaku Co. Ltd.
(§3) The culture medium used was the low serum culture medium for human skin fibroblast growth purchased from Kurabo Industries Ltd. (Medium 106S 500 ml).
(§4) The medium 106S is a basal medium for skin fibroblasts.
(§5) LSGS (low serum growth supplement) was not used here.
In the measurement of adhesion, the cells floating in the medium at 5 hours after inoculation of cells into the medium were removed, and the viable cell number adhering to the bottom of a dish was measured.
(§6) Besides the cell culture method, coating of peptides on cell culture dishes, measurement of viable cell number with Alamer Blue dye, and the like were carried out as described in Example 1.
(§7) In this case, the concentration of each peptide coated on dishes was 0.025 μg/cm^2.
The adhesion rate (%) in the case where no peptide was coated was set at 100.

human skin fibroblasts [5] = assay: Proliferation of human skin fibroblasts after 3-day culture in peptide-coated dishes (Medium 106S without LSGS); format: cell-based; conditions: Table 9, peptide 0.025 μg/cm^2, no LSGS, no peptide = 100
Experimental: as §1, §2, §3, §4, §5
In the measurement of proliferation, the viable cell number at 3 days after inoculation of cells into the medium was measured.
as §6, §7
The growth rate (%) in the case where no peptide was coated was set at 100.
It should be noted that the viable cell number in the control in 3-day culturing increased about 150% during the culture and the control value (100%) was based on the viable cell number after 3-day culture.
Accordingly, when there was no increase or decrease in the cell number after 3-day culturing, the growth rate would become about 70%.

[6] = Table 7, peptide concentration 0.025 μg/cm^2, 3-day culture
[7] = Table 5, synthetic peptide 0.0025%, 3-day culture
[8] = Table 5, synthetic peptide 0.025%, 3-day culture
[9] = Table 6, values of Tables 4 and 5 at higher peptide concentration (0.025%)

Molecule | Cell growth rate (%) (human skin fibroblasts [1]; [6]) | Adhesion rate (%) (human skin fibroblasts [4]) | Cell growth rate (%) (human skin fibroblasts [1]; [9]) | Growth rate (%) (human skin fibroblasts [5]) | also measured
Glu Glu Glu Glu (EEEE; printed: Glu Glu Glu Glu) | 231% |  |  |  | 
Glu Glu | 159% |  |  |  | 
C[C@H](NC(=O)CN)C(=O)NCC(=O)N[C@@H](C)C(=O)NCC(=O)N[C@@H](CO)C(=O)NCC(=O)N[C@@H](C)C(=O)N[C@@H](C)C(=O)N[C@@H](CO)C(=O)NCC(=O)N[C@@H](C)C(=O)NCC(=O)N[C@@H](C)C(=O)NCC(=O)N[C@@H](C)C(=O)NCC(=O)N[C@@H](C)C(=O)NCC(=O)N[C@@H](C)C(=O)NCC(=O)N[C@H](C(=O)O)[C@@H](C)O [SfHC-2] (H-GAGAGSGAASGAGAGAGAGAGT-OH; N-terminus and C-terminus assumed) |  |  |  |  | solubility (in words) [2]: difficult to dissolve
NINDFDED [A-6-6] |  |  |  |  | Growth rate (%) (human skin fibroblasts [3]): 159 ± 6.6%; growth rate relative to the growth of the control (human skin fibroblasts [3]): 1.5 fold; cell growth promotion (in words) (human skin fibroblasts [1]): showed cell growth promotion
VITTDSDGNE [A-6-2] |  |  |  |  | Growth rate (%) (human skin fibroblasts [3]): 153 ± 2.7%; growth rate relative to the growth of the control (human skin fibroblasts [3]): 1.5 fold; cell growth promotion (in words) (human skin fibroblasts [1]): showed cell growth promotion
C[C@H](NC(=O)CN)C(=O)NCC(=O)N[C@@H](C)C(=O)NCC(=O)N[C@@H](CO)C(=O)NCC(=O)N[C@@H](C)C(=O)NCC(=O)N[C@@H](C)C(=O)NCC(=O)N[C@@H](CO)C(=O)NCC(=O)N[C@@H](C)C(=O)NCC(=O)N[C@@H](C)C(=O)NCC(=O)N[C@@H](Cc1ccc(O)cc1)C(=O)NCC(=O)N[C@@H](C)C(=O)NCC(=O)N[C@@H](Cc1ccc(O)cc1)C(=O)O [SfHC-1] (H-GAGAGSGAGAGSGAGAGYGAGY-OH; N-terminus and C-terminus assumed) |  |  |  |  | solubility (in words) [2]: difficult to dissolve
Glu Glu Glu Glu Glu Glu Glu Glu Glu Glu | 254% |  |  |  | 
RRAGHDRAAGS [AfH4] |  | 151% | 133% | 96% | Growth rate (%) (human skin fibroblasts [1]; [7]): 113 ± 4.8%; Growth rate (%) (human skin fibroblasts [1]; [8]): 133 ± 8.7%
C[C@H](N)C(=O)N[C@@H](C)C(=O)N[C@@H](C)C(=O)N[C@@H](C)C(=O)N[C@@H](C)C(=O)N[C@@H](C)C(=O)N[C@@H](C)C(=O)N[C@@H](C)C(=O)N[C@@H](C)C(=O)N[C@@H](C)C(=O)O [AfH0, Ala Ala Ala Ala Ala Ala Ala Ala Ala Ala] |  |  |  |  | solubility (in words) [2]: hard to dissolve
EEEEEE | 346% |  |  |  | 
GSGAGGRGDGGYGSGSS [AfH3] |  | 174% | 194% | 69% | Growth rate (%) (human skin fibroblasts [1]; [7]): 111 ± 9.0%; Growth rate (%) (human skin fibroblasts [1]; [8]): 194 ± 24.5%
Tyr Tyr | 113% |  |  |  | 
YGWGDGGYGSDS [AfH1] |  | 169% | 396% | 94% | Growth rate (%) (human skin fibroblasts [1]; [7]): 179 ± 13.5%; Growth rate (%) (human skin fibroblasts [1]; [8]): 396 ± 4.0%; cell growth promotion (in words) (human skin fibroblasts [1]): excellent cell growth promotion
Tyr Tyr Tyr Tyr (YYYY; printed: Tyr Tyr Tyr Tyr) | 156% |  |  |  | 
N[C@@H](CCC(=O)O)C(=O)O [Glu, glutamic acid, reference compound] | 69% |  |  |  | 
EYEYEY | 207% |  |  |  | 
DEDEDE | 322% | 229% |  |  | 
SGAGGSGGYGGYGSDS [AfH2] |  | 149% | 196% | 71% | Growth rate (%) (human skin fibroblasts [1]; [7]): 118 ± 14.7%; Growth rate (%) (human skin fibroblasts [1]; [8]): 196 ± 9.4%
YYYYYY | 239% |  |  |  | 
DDGFVLDGGYDSE [AfH7] |  | 153% | 284% | 89% | Growth rate (%) (human skin fibroblasts [1]; [7]): 155 ± 5.3%; Growth rate (%) (human skin fibroblasts [1]; [8]): 284 ± 25.1%; cell growth promotion (in words) (human skin fibroblasts [1]): excellent cell growth promotion
DEYVDN [AfH5] |  | 234% | 344% | 108% | Growth rate (%) (human skin fibroblasts [1]; [7]): 192 ± 11.3%; Growth rate (%) (human skin fibroblasts [1]; [8]): 344 ± 7.7%; cell growth promotion (in words) (human skin fibroblasts [1]): excellent cell growth promotion
EEYEEY | 212% |  |  |  | 
CC(C)[C@H](NC(=O)[C@H](CO)NC(=O)[C@H](CO)NC(=O)[C@H](C)NC(=O)[C@H](C)N)C(=O)N[C@@H](CO)C(=O)N[C@@H](CO)C(=O)N[C@@H](C)C(=O)N[C@@H](CO)C(=O)N[C@@H](CO)C(=O)N[C@@H](CCCNC(=N)N)C(=O)N[C@@H](CO)C(=O)N[C@@H](Cc1ccc(O)cc1)C(=O)N[C@@H](CC(=O)O)C(=O)N[C@@H](Cc1ccc(O)cc1)C(=O)N[C@@H](CO)C(=O)N[C@@H](CCCNC(=N)N)C(=O)N[C@@H](CCCNC(=N)N)C(=O)N[C@@H](CC(N)=O)C(=O)N[C@H](C(=O)N[C@@H](CCCNC(=N)N)C(=O)N[C@@H](CCCCN)C(=O)N[C@@H](CC(N)=O)C(=O)O)C(C)C [SfHE] (H-AASSVSSASSRSYDYSRRNVRKN-OH; N-terminus and C-terminus assumed) |  |  |  |  | solubility (in words) [2]: difficult to dissolve
VETIVLEEDPYGHEDIYEED [AfH6] |  | 135% | 264% | 77% | Growth rate (%) (human skin fibroblasts [1]; [7]): 152 ± 9.0%; Growth rate (%) (human skin fibroblasts [1]; [8]): 264 ± 9.0%; cell growth promotion (in words) (human skin fibroblasts [1]): higher cell growth promotion; also recorded: excellent cell growth promotion
GSSGFGPYVAHGGYSGYEYAWSSESDFGT [SfHA] |  | 205% | 316% | 159% | Growth rate (%) (human skin fibroblasts [1]; Table 4, synthetic peptide 0.0025%, 3-day culture): 321 ± 6.2%; Growth rate (%) (human skin fibroblasts [1]; Table 4, synthetic peptide 0.025%, 3-day culture): 316 ± 5.7%
